Assay results as given in patent US20030068615A1, “Polypeptides that bind HIV gp120 and related nucleic acids, antibodies, compositions, and methods of use” (priority 1999, published 2003).
“And” between values parts separate entries of the source, which are not always exact repeats. Equal entries are not always repeated. Where two headings read alike, the source gives them in different places.

Target: HIV-1LAI envelope gp120 (Human immunodeficiency virus type 1 group M subtype B, UniProt P03377)
Assay type: binding
Conditions: for number of radioactive decays (counts) counted: human CD4 21-mer scan, empty control 2075; for Binding Results For Window Length (counts bound-background), 9: 9-mer starting at the first residue of the printed sequence; for Relative % of Control: mean of two syntheses and binding experiments ± average deviation, wild-type = 100%; for Counts per 20′ Average-background: CCR5 18-mer scan; for Counts per 20′ Average-background / percentage of binding of mutant polypeptide compared to wild-type polypeptide, gp120: radiolabeled HIV-1LAI gp120; for percentage of binding of mutant polypeptide compared to wild-type polypeptide, gp120: CCR5 alanine mutant peptide
[1] = STRL33 18-mer scan, background subtracted, first of two count columns
[2] = STRL33 18-mer scan, background subtracted, second of two count columns
[3] = STRL33 amino terminus, background subtracted
[4] = Panel B, 15-mers and 18-mers of CD4, empty control 575
[5] = Panel D, 9-mers and 12-mers of CD4, empty control […]
[6] = Panel A, 21-mers of CD4, empty control 515 and 617
[7] = Panel C, 15-mers and 18-mers of CD4, empty control 556
[8] = Panel G, alanine replacements and serial truncations (Z) of CD4 polypeptides, empty control 580
[9] = Panel E, 9-mers and 12-mers of CD4, empty control 571
[10] = CXCR4 18-mer scan, background subtracted, empty control 0
[11] = CXCR4 18-mer scan, empty control 412
[12] = Panel F, sequential alanine replacements of CD4 polypeptides, duplicate series, empty control 569

QWKSSEDNSKTFSASHNV
radioactive counts recorded in twenty minutes [1]: 464.5 counts
radioactive counts recorded in twenty minutes [2]: 533.5 counts

EVNLVVMRATQLQKNLTCEVW [human CD4 311-331]
number of radioactive decays (counts) counted: 2183 counts

YHEDYGFSSFNDSSQEEH
Binding Results For Window Length (counts bound-background), 9 [3]: 728 counts
Binding Results For Window Length (counts bound-background), 12 (STRL33 amino terminus, 12-mer starting at the first residue of the printed sequence, background subtracted): 1950 counts
Binding Results For Window Length (counts bound-background), 15 (STRL33 amino terminus, 15-mer starting at the first residue of the printed sequence, background subtracted): 1357 counts
Binding Results For Window Length (counts bound-background), 18 (STRL33 amino terminus, 18-mer starting at the first residue of the printed sequence, background subtracted): 985 counts

QLLVFGLTANSDTHL
COUNTS of radiolabeled gp120 retained [4]: 865 counts

MEGISIYTSDNYTAEMGS
Relative % of Control (CXCR4 (1-18) alanine variants): 72 ± 1%

PMALIVLGGVAGLLLFIGLGI
number of radioactive decays (counts) counted: 3067 counts

VEDQKEEVQ
COUNTS of radiolabeled gp120 retained [5]: 521 counts

PLIIKNLKIEDS
COUNTS of radiolabeled gp120 retained [5]: 565 counts

IRSTHWEYYAMTSFHYTI
radioactive counts recorded in twenty minutes [1]: 1571.5 counts
radioactive counts recorded in twenty minutes [2]: 1807.5 counts

NLKIEDSDTYIC
COUNTS of radiolabeled gp120 retained [5]: 639 counts

VLAFQKASSIVYKKEGEQVEF
COUNTS of radiolabeled gp120 retained [6]: 1793 counts
number of radioactive decays (counts) counted: 3566 counts

WTCTVLQNQKKVEFKIDI
COUNTS of radiolabeled gp120 retained [7]: 588 counts

PLIIKLNKIEDSDTYICEVED
COUNTS of radiolabeled gp120 retained [6]: 20145 counts

ANSDTHLLQ
COUNTS of radiolabeled gp120 retained [5]: 642 counts

CKCCSIFQQEAPERASSV [CCR5 segment 321-]
Counts per 20′ Average-background (background subtracted): 53 counts per 20′

RRQAERMSQLKRLLSEKKTCQ [human CD4, printed 42E-446]
number of radioactive decays (counts) counted: 1607 counts

IKNLKIEDS
COUNTS of radiolabeled gp120 retained [5]: 557 counts

KIEDSDTYI
COUNTS of radiolabeled gp120 retained [5]: 603 counts

GAQVEFSFPLAFTVE
COUNTS of radiolabeled gp120 retained [8]: 18079 counts and 17733 counts

VEDQKEEVQLLVFGL
COUNTS of radiolabeled gp120 retained [4]: 3816 counts

EVQLLVFGLTAN
COUNTS of radiolabeled gp120 retained [5]: 1838 counts

VQLLVFGLT
COUNTS of radiolabeled gp120 retained [5]: 815 counts

DSDTYICEVEDQKEEVQL
COUNTS of radiolabeled gp120 retained [4]: 961 counts

MDYAVSSPIYDINYYTSE [CCR5 (1-18) variant Q4A]
Relative % of Control (CCR5 (1-18) alanine variants): 104 ± 7%
percentage of binding of mutant polypeptide compared to wild-type polypeptide, gp120: 104%

FLPCMYLVVFVCGLVGNS [STRL33 segment 33-50]
radioactive counts recorded in twenty minutes [1]: 605.5 counts
radioactive counts recorded in twenty minutes [2]: 372.5 counts

VEKLTGSGELWW
COUNTS of radiolabeled gp120 retained [9]: 477 counts

VEDQKEEVQLLVFGLTAN
COUNTS of radiolabeled gp120 retained [4]: 3913 counts

KLLAEKVVYVGVWIPALL
radioactive counts recorded in twenty minutes [10]: 89 counts
radioactive counts recorded in twenty minutes [11]: 501 counts

WIPALLLTIPDFIFANVS
radioactive counts recorded in twenty minutes [10]: 182 counts
radioactive counts recorded in twenty minutes [11]: 594 counts

MCKSLLGIYTINFYTSML
radioactive counts recorded in twenty minutes [1]: 1505.5 counts
radioactive counts recorded in twenty minutes [2]: 1283.5 counts

DTYICEVEDQKEEVQ
COUNTS of radiolabeled gp120 retained [4]: 1071 counts

PLIIKNLKI
COUNTS of radiolabeled gp120 retained [5]: 697 counts

IDIVVLAFQKASSIVYKKEGE
COUNTS of radiolabeled gp120 retained [6]: 962 counts

MDYQVSSPIYDINYYTSA [CCR5 (1-18) variant E18A]
Relative % of Control (CCR5 (1-18) alanine variants): 4 ± 2%
percentage of binding of mutant polypeptide compared to wild-type polypeptide, gp120: 4.1%

IEDSDTYICEVE
COUNTS of radiolabeled gp120 retained [5]: 1107 counts

RLHLSVADLLFVITLPFW [CXCR4 segment 77-94]
radioactive counts recorded in twenty minutes [10]: 136 counts
radioactive counts recorded in twenty minutes [11]: 548 counts

LLFVITLPFWAVDAVANW
radioactive counts recorded in twenty minutes [10]: 63 counts
radioactive counts recorded in twenty minutes [11]: 475 counts

IDSFILLEIIKQGCEFEN [CXCR4 segment 261-278]
radioactive counts recorded in twenty minutes [10]: 3472 counts
radioactive counts recorded in twenty minutes [11]: 3884 counts

LTANSDTHLLQGQSL
COUNTS of radiolabeled gp120 retained [4]: 634 counts

VCYSVIIKTLLHAGGFQK [STRL33 segment 209-226]
radioactive counts recorded in twenty minutes [1]: 1334.5 counts
radioactive counts recorded in twenty minutes [2]: 1143.5 counts

NLTLALEAKTGKLHQEVNLVV [human CD4 296-316]
number of radioactive decays (counts) counted: 1676 counts

VLAFQKASSIVYKKEGEQ
COUNTS of radiolabeled gp120 retained [7]: 549 counts

DSDTYICEV
COUNTS of radiolabeled gp120 retained [5]: 712 counts

EVQLLVFGLTANSDT
COUNTS of radiolabeled gp120 retained [4]: 2689 counts

IEDSDTYICEVEDQK
COUNTS of radiolabeled gp120 retained [4]: 1143 counts

VKQIAARLLPPLYSLVFI [CCR5 segment 25-42]
Counts per 20′ Average-background (background subtracted): 18 counts per 20′

FTVEKLTGSGEL
COUNTS of radiolabeled gp120 retained [9]: 530 counts

QAFLQFSKV
Binding Results For Window Length (counts bound-background), 9 [3]: 2600 counts

QKRKALKTTVILILAFFA [CXCR4 segment 233-250]
radioactive counts recorded in twenty minutes [10]: 283 counts
radioactive counts recorded in twenty minutes [11]: 695 counts

IVYKKEGEQVEFSFPLAFTVE
COUNTS of radiolabeled gp120 retained [6]: 15620 counts

DRYLAVVHAVFALKARTV
Counts per 20′ Average-background (background subtracted): 62 counts per 20′

MDYQVSAPIYDINYYTSE
Relative % of Control (CCR5 (1-18) alanine variants): 56 ± 2%

LAFQKASSIVYKKEG
COUNTS of radiolabeled gp120 retained [7]: 593 counts

FIGLGIFFCVRCRHRRRQAER
number of radioactive decays (counts) counted: 1900 counts

SDTHLLQGQSLTLTL
COUNTS of radiolabeled gp120 retained [4]: 747 counts

EVEDQKEEV
COUNTS of radiolabeled gp120 retained [5]: 587 counts

ITLPFWAVDAVANWYFGN [CXCR4 segment 89-106]
radioactive counts recorded in twenty minutes [10]: 130 counts
radioactive counts recorded in twenty minutes [11]: 542 counts

TYICEVEDQKEEVQL
COUNTS of radiolabeled gp120 retained [4]: 956 counts

THLAQGQSLTLTLES
COUNTS of radiolabeled gp120 retained [12]: 7701 counts and 5120 counts

DQGNFPLIIKNL
COUNTS of radiolabeled gp120 retained [5]: 604 counts

TVNLYSSVLILAFISLDR
radioactive counts recorded in twenty minutes [10]: 242 counts
radioactive counts recorded in twenty minutes [11]: 654 counts

IFTRSQKEGLHYTCSSHF
Counts per 20′ Average-background (background subtracted): 98 counts per 20′

KEEVQLLVF
COUNTS of radiolabeled gp120 retained [5]: 1273 counts

LTVPFWAHYAAAQWDFGN [CCR5 segment 81-98]
Counts per 20′ Average-background (background subtracted): 306 counts per 20′

FQKASSIVYKKEGEQVEFSFP
COUNTS of radiolabeled gp120 retained [6]: 9382 counts

TYICEVEDQKEEVQLLVF
COUNTS of radiolabeled gp120 retained [4]: 3794 counts

EEVQLLVFGLAANSD
COUNTS of radiolabeled gp120 retained [12]: 18863 counts and 19973 counts

MNRGVPFRRLLLVLQLALLPA [human CD4 1-21]
number of radioactive decays (counts) counted: 3587 counts

SIVYKKEGEQVEFSF
COUNTS of radiolabeled gp120 retained [7]: 651 counts

WVVAVFASLPGIIFTRSQ [CCR5 segment 153-]
Counts per 20′ Average-background (background subtracted): 87 counts per 20′

SITEALAFFHCCLNPILY [CXCR4 segment 285-302]
radioactive counts recorded in twenty minutes [10]: 188 counts
radioactive counts recorded in twenty minutes [11]: 600 counts

SLKLENKEAKVSKREKAVWVL [human CD4 341-361]
number of radioactive decays (counts) counted: 1663 counts

TELLQGASLTLTLES
COUNTS of radiolabeled gp120 retained [12]: 4238 counts

MIVYFLFWAPYNIVLLLN [CCR5 segment 241-]
Counts per 20′ Average-background (background subtracted): 214 counts per 20′

AGLLLFIGLGIFFCVRCRHRR
number of radioactive decays (counts) counted: 2099 counts

NFPLIIKNLKIEDSDTYI
COUNTS of radiolabeled gp120 retained [4]: 627 counts

AGGFQKHRSLKIIFLVMA
radioactive counts recorded in twenty minutes [1]: 340.5 counts
radioactive counts recorded in twenty minutes [2]: 260.5 counts

CKAVHVIYTVNLYSSVLI
radioactive counts recorded in twenty minutes [10]: 243 counts
radioactive counts recorded in twenty minutes [11]: 655 counts

QGNFPLIIKNLKIEDSDT
COUNTS of radiolabeled gp120 retained [4]: 564 counts

WITFDLKNKEVSVKRVTQDPK
number of radioactive decays (counts) counted: 2126 counts

GEQAEFSFPLAFTVE
COUNTS of radiolabeled gp120 retained [8]: 14764 counts and 13000 counts

KIDIVVLAFQKASSI
COUNTS of radiolabeled gp120 retained [7]: 956 counts

LTCEVWGPTSPKLMLSLKLEN
number of radioactive decays (counts) counted: 2412 counts

GYHDEAISTVVLATQMTL
radioactive counts recorded in twenty minutes [1]: 754.5 counts
radioactive counts recorded in twenty minutes [2]: 1181.5 counts

FSFPLAFTVEKL
COUNTS of radiolabeled gp120 retained [9]: 573 counts

SDTHLLQGQSLTLTLESP
COUNTS of radiolabeled gp120 retained [4]: 1260 counts

LRSMTDKYRLHLSVADLL [CXCR4 segment 69-86]
radioactive counts recorded in twenty minutes [10]: 160 counts
radioactive counts recorded in twenty minutes [11]: 572 counts

THLLAGQSLTLTLES
COUNTS of radiolabeled gp120 retained [12]: 4578 counts and 2956 counts

QKINVKQIAARLLPPLYS [CCR5 segment 21-38]
Counts per 20′ Average-background (background subtracted): 20 counts per 20′

DIGCLPYLGVSHQWKSSE
radioactive counts recorded in twenty minutes [1]: 17.5 counts
radioactive counts recorded in twenty minutes [2]: 78.5 counts

EDSDTYICEVED
COUNTS of radiolabeled gp120 retained [5]: 956 counts

EFSFPLAFTVEK
COUNTS of radiolabeled gp120 retained [9]: 585 counts

VFGLTANSDTHLLQG
COUNTS of radiolabeled gp120 retained [4]: 532 counts

HFPYSQYQFWKNFQTLKI
Counts per 20′ Average-background (background subtracted): 1008 counts per 20′

GNFPLIIKN
COUNTS of radiolabeled gp120 retained [5]: 600 counts

EFKIDIVVLAFQKAS
COUNTS of radiolabeled gp120 retained [7]: 1188 counts

SCYCIIISKLSHSKGHQK
radioactive counts recorded in twenty minutes [10]: 259 counts
radioactive counts recorded in twenty minutes [11]: 671 counts

KVEFKIDIVVLA
COUNTS of radiolabeled gp120 retained [9]: 560 counts
